Reference: BindingDB's records for doi:10.1126/science.279.5347.77 (Abbott Laboratories, 1998)
pKi: −log10 of the molar value.

Target: Neuronal acetylcholine receptor subunit alpha-4 (Rattus norvegicus, UniProt P09483)
Sequence (P09483 whole entry): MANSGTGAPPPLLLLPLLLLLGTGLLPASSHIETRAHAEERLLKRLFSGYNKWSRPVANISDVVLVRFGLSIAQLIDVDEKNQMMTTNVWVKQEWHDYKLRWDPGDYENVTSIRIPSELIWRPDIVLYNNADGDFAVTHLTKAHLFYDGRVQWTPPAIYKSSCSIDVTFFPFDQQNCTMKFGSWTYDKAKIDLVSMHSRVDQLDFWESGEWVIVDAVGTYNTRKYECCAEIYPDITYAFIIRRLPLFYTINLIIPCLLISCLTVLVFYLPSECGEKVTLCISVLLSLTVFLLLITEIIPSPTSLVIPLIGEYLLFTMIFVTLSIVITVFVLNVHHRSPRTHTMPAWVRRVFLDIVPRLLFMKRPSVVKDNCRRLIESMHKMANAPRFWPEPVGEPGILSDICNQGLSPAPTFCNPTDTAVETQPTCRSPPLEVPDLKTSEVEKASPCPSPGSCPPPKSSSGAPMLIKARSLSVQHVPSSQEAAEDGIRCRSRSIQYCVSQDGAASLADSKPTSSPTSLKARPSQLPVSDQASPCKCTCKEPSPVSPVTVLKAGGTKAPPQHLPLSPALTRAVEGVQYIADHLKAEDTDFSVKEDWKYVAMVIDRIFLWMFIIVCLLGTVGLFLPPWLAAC

Clc1ccc(OC[C@@H]2CCN2)cn1
pKi: 10.52
